The results in this text go back to ChEMBL document CHEMBL1136408, “Structure-activity and crystallographic analysis of benzophenone derivatives-the potential anticancer agents” (Bioorg Med Chem Lett, 2003).

One assay relates to CPT30 cell line. Description: Inhibitory concentration against camptothecin (CPT) resistant cell line using tetrazolium dye reduction assay (MTT). It is filed as functional, cell-based. The note with it: Homo sapiens.
In a further assay the test system is HONE1 cell line. Description: Inhibitory concentration against human NPC cancer cell line using tetrazolium dye reduction assay (MTT). It is filed as functional, cell-based.
Assay [1] deals with KB 3-1. Description: Compound was tested for cell arrest at G2/M phase at 100 nM concentration in KB human cancer cells. It is filed as functional. The conditions noted are these: read-out: Inhibition.
Assay [2] concerns KB 3-1. Description: Compound was tested for cell arrest at G2/M phase at 25 nM concentration in KB human cancer cells. The conditions noted are these: read-out: Inhibition. It is filed as functional.
Assay [3] deals with KB 3-1. Put plainly: Compound was tested for cell arrest at G2/M phase at 50 nM concentration in KB human cancer cells. It is filed as functional. The note with it: read-out: Inhibition.
Assay [4] deals with KB 3-1. Put plainly: Compound was tested for cell arrest at Go/G1 phase at 25 nM concentration in KB human cancer cells. It is filed as functional. The conditions noted are these: read-out: Inhibition.
The test system of assay [5] is KB 3-1. Put plainly: Compound was tested for cell arrest at Go/G1 phase at 50 nM concentration in KB human cancer cells. It is filed as functional. The conditions noted are these: read-out: Inhibition.
In assay [6] the test system is KB 3-1. Put plainly: Compound was tested for cell arrest at S phase at 100 nM concentration in KB human cancer cells. It is filed as functional. The conditions noted are these: read-out: Inhibition.
Assay [7] relates to KB 3-1. Description: Compound was tested for cell arrest at S phase at 25 nM concentration in KB human cancer cells. It is filed as functional. The note with it: read-out: Inhibition.
For assay [8], the system named is KB 3-1. Description: Compound was tested for cell arrest at sub-G1 phase at 100 nM concentration in KB human cancer cells. It is filed as functional. The note with it: read-out: Inhibition.
For assay [9], the system named is KB 3-1. Description: Compound was tested for cell arrest at sub-G1 phase at 25 nM concentration in KB human cancer cells. It is filed as functional. The conditions noted are these: for Percent of cells arrested in sub-G1 phase at 0.025 µM: Homo sapiens, KB 3-1, read-out: Inhibition.
Assay [10] has as its system KB 3-1. Put plainly: Compound was tested for cell arrest at sub-G1 phase at 50 nM concentration in KB human cancer cells. It is filed as functional. The conditions noted are these: read-out: Inhibition.
For assay [11], the system named is KB. Description: Inhibitory concentration against camptothecin (CPT) resistant cell line (KB-100) using tetrazolium dye reduction assay (MTT). It is filed as functional, cell-based. The note with it: Homo sapiens.
In assay [12] the test system is KB. Description: Inhibitory concentration against taxol resistant cell line (KBs5) at a concentration of 50 nM using tetrazolium dye reduction assay (MTT). It is filed as functional, cell-based. The conditions noted are these: Homo sapiens.
For assay [13], the system named is KB. Description: Inhibitory concentration against VP16 resistant cell line (KB-7D) using tetrazolium dye reduction assay (MTT). It is filed as functional, cell-based. The conditions noted are these: Homo sapiens.
Assay [14] concerns KB 3-1. Description: Compound was tested for cell arrest at Go/G1 phase at 100 nM concentration in KB human cancer cells. It is filed as functional. The conditions noted are these: read-out: Inhibition.
Assay [15] relates to KB. Description: Inhibitory concentration against vincristine-resistant cell line (KB-Vin 10) using tetrazolium dye reduction assay (MTT). It is filed as functional, cell-based. The conditions noted are these: Homo sapiens.
For assay [16], the system named is KB. Put plainly: Inhibitory concentration against human oral cancer cell line (KB) using tetrazolium dye reduction assay (MTT). It is filed as functional, cell-based.
Assay [17] relates to KB 3-1. Put plainly: Compound was tested for cell arrest at S phase at 50 nM concentration in KB human cancer cells. The conditions noted are these: read-out: Inhibition. It is filed as functional.

As for `COc1ccc(/C=C\c2cc(OC)c(OC)c(OC)c2)cc1O` [COMBRETASTATIN A4], the IC50 turned out to be 6.9 nM in the assay with CPT30 cell line; 6.5 nM in the assay with HONE1 cell line; 7.3 nM with KB [11]; 7 nM in the assay on KB [12]; 7.9 nM in the assay with KB [13]; 9.5 nM in the assay with KB [15]. The IC50 in the assay with KB [16] was 6.2 nM. Further, the percent of cells arrested in G2/M phase at 0.1 µM in the assay on KB 3-1 [1] amounted to 72.3%. Besides, in the assay with KB 3-1 [2], the percent of cells arrested in G2/M phase at 0.025 µM came out at 61.6%. The Cells arrested in G2/M phase (%) at 0.05 µM with KB 3-1 [3] came to 63.2%. Besides, the percent of cells in G0/G1 phase at 0.025 µM in the assay on KB 3-1 [4] came to 8.9%. In addition, the % cells in G0/G1 phase at 0.05 µM in the assay on KB 3-1 [5] came to 9.3%. Besides, the Cells arrested in S phase at 0.1 µM in the assay with KB 3-1 [6] amounted to 10.6%. Also, the Cells arrested in S phase (%) at 0.025 µM with KB 3-1 [7] came to 11%. The Percent of cells in sub-G1 phase at 0.1 µM with KB 3-1 [8] amounted to 11.6%. For the same compound, the Percent of cells arrested in sub-G1 phase at 0.025 µM in the assay with KB 3-1 [9] came out at 18.3%. Further, the Cells in sub-G1 phase at 0.05 µM in the assay on KB 3-1 [10] was 16.8%. Moreover, in the assay with KB 3-1 [14], the percent cells arrested in G0/G1 phase at 0.1 µM is 5.2%. For the same compound, the percent of cells arrested in S phase at 0.05 µM in the assay on KB 3-1 [17] was determined as 10.6%.

Regarding `COc1ccc(C(=O)c2cc(OC)c(OC)c(OC)c2)c(N)c1`, the IC50 with CPT30 cell line worked out at 37.3 nM; in the assay on HONE1 cell line it was 35.8 nM; in the assay with KB [11], 18.9 nM; in the assay with KB [12], 25.6 nM; with KB [13] it was 29.3 nM; in the assay with KB [15] it was 45.8 nM. In addition, it took 25.8 nM to reach half-maximal inhibition with KB [16] (IC50).

In the case of `COc1ccc(C(=O)c2cc(OC)c(OC)c(OC)c2)cc1O` [PHENSTATIN], the IC50 with CPT30 cell line came to 37.2 nM; with HONE1 cell line, 138 nM; with KB [11] it was 34.8 nM; in the assay on KB [12], 184 nM; in the assay on KB [13] it was 180 nM; in the assay on KB [15] it was 34.1 nM. In addition, in the assay on KB [16], the IC50 came to 129 nM. The percent of cells arrested in G2/M phase at 0.1 µM in the assay with KB 3-1 [1] came to 73.5%. In the assay with KB 3-1 [2], the percent of cells arrested in G2/M phase at 0.025 µM was 39.6%. Moreover, the Cells arrested in G2/M phase (%) at 0.05 µM in the assay with KB 3-1 [3] was 63.9%. Also, the percent of cells in G0/G1 phase at 0.025 µM in the assay on KB 3-1 [4] was determined as 17.6%. Further, in the assay on KB 3-1 [5], the % cells in G0/G1 phase at 0.05 µM is 7.6%. In addition, in the assay with KB 3-1 [6], the Cells arrested in S phase at 0.1 µM was 7.7%. Further, the Cells arrested in S phase (%) at 0.025 µM with KB 3-1 [7] came to 9.9%. In addition, the Percent of cells in sub-G1 phase at 0.1 µM in the assay on KB 3-1 [8] was 13%. Moreover, in the assay on KB 3-1 [9], the Percent of cells arrested in sub-G1 phase at 0.025 µM worked out at 32.9%. The Cells in sub-G1 phase at 0.05 µM in the assay with KB 3-1 [10] was determined as 17.8%. For the same compound, the percent cells arrested in G0/G1 phase at 0.1 µM with KB 3-1 [14] turned out to be 5.6%. Besides, the percent of cells arrested in S phase at 0.05 µM in the assay with KB 3-1 [17] came to 10.5%.

For the compound `COc1cc(C(=O)c2cc(Cl)ccc2O)cc(OC)c1OC`, the IC50 was 5000 nM with CPT30 cell line; 6110 nM in the assay on HONE1 cell line; 4070 nM in the assay on KB [11]; 4550 nM in the assay on KB [12]; 5450 nM in the assay with KB [13]; 8340 nM in the assay on KB [15]. The same compound showed an IC50 in the assay on KB [16] of 5460 nM. The percent of cells arrested in G2/M phase at 0.1 µM with KB 3-1 [1] was found to be 16%. Further, the percent of cells arrested in G2/M phase at 0.025 µM in the assay on KB 3-1 [2] amounted to 18.3%. Also, the Cells arrested in G2/M phase (%) at 0.05 µM in the assay with KB 3-1 [3] stood at 18.9%. Besides, the percent of cells in G0/G1 phase at 0.025 µM in the assay with KB 3-1 [4] was found to be 61.8%. Moreover, the % cells in G0/G1 phase at 0.05 µM in the assay with KB 3-1 [5] came to 59.4%. The Cells arrested in S phase at 0.1 µM in the assay with KB 3-1 [6] was 11.8%. Moreover, the Cells arrested in S phase (%) at 0.025 µM with KB 3-1 [7] came to 14.6%. Moreover, the Percent of cells in sub-G1 phase at 0.1 µM with KB 3-1 [8] turned out to be 26.5%. For the same compound, in the assay on KB 3-1 [9], the Percent of cells arrested in sub-G1 phase at 0.025 µM turned out to be 5.3%. Moreover, in the assay on KB 3-1 [10], the Cells in sub-G1 phase at 0.05 µM was 5.7%. In the assay with KB 3-1 [14], the percent cells arrested in G0/G1 phase at 0.1 µM was determined as 45.4%. Also, the percent of cells arrested in S phase at 0.05 µM with KB 3-1 [17] turned out to be 15.9%.

Turning to `COc1cc(C(=O)c2cc(Cl)ccc2N)cc(OC)c1OC`, the IC50 was 60.3 nM in the assay on CPT30 cell line; 64.5 nM in the assay on HONE1 cell line; 156 nM in the assay on KB [11]; 71 nM with KB [12]; 104 nM with KB [13]; 97.2 nM with KB [15]. The IC50 in the assay on KB [16] stood at 90.4 nM. In the assay with KB 3-1 [1], the percent of cells arrested in G2/M phase at 0.1 µM was 73.2%. The percent of cells arrested in G2/M phase at 0.025 µM in the assay on KB 3-1 [2] came out at 17.3%. Moreover, in the assay on KB 3-1 [3], the Cells arrested in G2/M phase (%) at 0.05 µM stood at 17.3%. The percent of cells in G0/G1 phase at 0.025 µM in the assay on KB 3-1 [4] is 61.7%. In the assay on KB 3-1 [5], the % cells in G0/G1 phase at 0.05 µM is 61.7%. For the same compound, the Cells arrested in S phase at 0.1 µM with KB 3-1 [6] came to 7.1%. Further, the Cells arrested in S phase (%) at 0.025 µM in the assay with KB 3-1 [7] was 14.3%. Moreover, the Percent of cells in sub-G1 phase at 0.1 µM in the assay with KB 3-1 [8] turned out to be 13.9%. In the assay with KB 3-1 [9], this compound gave a Percent of cells arrested in sub-G1 phase of 6.5%. In the assay with KB 3-1 [10], the Cells in sub-G1 phase at 0.05 µM is 6.4%. The percent cells arrested in G0/G1 phase at 0.1 µM in the assay on KB 3-1 [14] was 5.7%. Further, the percent of cells arrested in S phase at 0.05 µM in the assay with KB 3-1 [17] was determined as 14.6%.

As for `COc1ccc(N)c(C(=O)c2cc(OC)c(OC)c(OC)c2)c1`, the IC50 in the assay with CPT30 cell line came out at 41 nM; in the assay on HONE1 cell line, 59.2 nM; with KB [11], 22.5 nM; in the assay with KB [12], 34.7 nM; in the assay with KB [13], 38.1 nM; in the assay with KB [15], 48.6 nM. In the assay with KB [16], it took 38.5 nM to reach half-maximal inhibition (IC50).

On to `CNc1ccc(Cl)cc1C(=O)c1cc(OC)c(OC)c(OC)c1`, for which the IC50 is 5350 nM in the assay with CPT30 cell line; 5140 nM in the assay on HONE1 cell line; 7160 nM in the assay with KB [11]; 2290 nM with KB [12]; 5410 nM in the assay on KB [13]; 5850 nM in the assay on KB [15]. The same compound displayed an IC50 in the assay on KB [16] of 6080 nM.
